Data from patent US20010014676A1, “Immunosuppressive compositions” (priority 1990, published 2001).

Tested on: Lewis-Brown Norway F1 Hybrid cardiac allografts in Lewis recipients
Test: acute cardiac allograft rejection model (procedure of Kupiec-Weglinski)
Assay type: in vivo, rat
Details: for GRAFT SURVIVAL MEAN ± SD: N=7
Protocol: The therapeutic efficacy of a pharmaceutical composition of the invention was tested according to the procedure of Kupiec-Weglinski, J. W., et al., (1988) Transplant Proc. 20:207-216 (hereinafter “Kupiec-Weglinski”) to determine its in vivo potency as an acute transplantation/graft rejection modulator.
Briefly, to preform these experiments, the following protocol was employed. Male inbred adult rats (Lewis-Brown Norway F1 Hybrid rats, obtained from Harlan sprague—Dawley Inc., Indianapolis, Ind.) were used. Lewis-Brown Norway F1 Hybrid cardiac allografts were transplanted to the abdominal great vessels of Lewis recipients. The animals were administered compounds according to the following five distinct regimens.
Protocol I. Pretreatment Protocol—20 mg/kg/day of Compound A was administered orally for 7 consecutive days prior to transplantation (days −7 to −1).
Protocol II Treatment Protocol—20 mg/kg/day of Compound A was administered orally for 7 consecutive post-transplant days (days 0-6) followed by intermittent 5 day courses (days 9-13 and 16-20).
Protocol III Pretreatment and Treatment Protocol—20 mg/kg/day of Compound A was administered orally for 7 consecutive days prior to transplantation (days −7 to −1) followed by intermittent 5 day courses (days 9-13 and 16-20).
Ventricular contractions were assessed daily by palpation through the recipient flank. Rejection was defined as the day of cessation of myocardial contractions and confirmed histologically.

CCCC1(CCC)CCC2(CCN(CCCN(C)C)C2)CC1 [Compound A, N,N-dimethyl-8,8-dipropyl-2-azaspiro [4,5]-decane-2-propanamine]
average graft survival time (Compound A alone (pretreatment, treatment or pretreatment and treatment protocol), untreated average 7 days): 16 days | GRAFT SURVIVAL MEAN ± SD (Protocol I pretreatment: Compound A 20 mg/kg/day orally, days -7 to -1): 14.7 ± 5.8 days | GRAFT SURVIVAL MEAN ± SD (Protocol II treatment: Compound A 20 mg/kg/day orally, days 0-6, then days 9-13 and 16-20): 16.7 ± 2.0 days | GRAFT SURVIVAL MEAN ± SD (Protocol III pretreatment and treatment: Compound A 20 mg/kg/day orally, days -7 to -1, then days 9-13 and 16-20): 16.0 ± 4.3 days | graft survival time (transplants routinely retained) (combination protocol: Compound A 20 mg/kg/day orally plus cyclosporin A […] by injection, days 0-6): over 40 days
